Measured values taken from paper PMC11628855 (Acta Pharmaceutica Sinica. B, 2024).

Target: T1, GacS (12–166)-His (Pseudomonas aeruginosa, UniProt G3XD98)
T1 sequence (G3XD98 12-166): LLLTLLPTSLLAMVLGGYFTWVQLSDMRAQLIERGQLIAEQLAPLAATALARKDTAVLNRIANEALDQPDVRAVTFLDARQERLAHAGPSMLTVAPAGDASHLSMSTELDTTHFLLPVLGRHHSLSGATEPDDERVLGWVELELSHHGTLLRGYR
Assay: microscale thermophoresis
Assay type: binding

Kd: 12.8 ± 0.68 µM
SMILES: CCCCCCNC(=O)CNc1nc2ccc(OC)cc2s1 [SN12, N-Hexyl-2-((6-methoxybenzo[d]thiazol-2-yl)amino)acetamide]
